Source: patent US8557832B2, “Aryl methyl benzoquinazolinine M1 receptor positive allosteric modulators” (Merck Sharp & Dohme Corp., priority 2008, dated 2013)

The molecules below were run against T1, acetylcholine muscarinic M1 receptor (Homo sapiens, UniProt P11229) (assay: muscarinic FLIPR assay: potentiation of acetylcholine (EC20)-stimulated intracellular Ca2+ in CHOnfat/hM1 cells). Details: 4 min preincubation, then EC20 acetylcholine (3 nM final), read-out: IP Value (inflection point).
T1 construct: expressed in transfected cells; host or cells: CHOnfat (CHO cells; also called CHOK1/hM1)
T1 sequence (P11229 1-460): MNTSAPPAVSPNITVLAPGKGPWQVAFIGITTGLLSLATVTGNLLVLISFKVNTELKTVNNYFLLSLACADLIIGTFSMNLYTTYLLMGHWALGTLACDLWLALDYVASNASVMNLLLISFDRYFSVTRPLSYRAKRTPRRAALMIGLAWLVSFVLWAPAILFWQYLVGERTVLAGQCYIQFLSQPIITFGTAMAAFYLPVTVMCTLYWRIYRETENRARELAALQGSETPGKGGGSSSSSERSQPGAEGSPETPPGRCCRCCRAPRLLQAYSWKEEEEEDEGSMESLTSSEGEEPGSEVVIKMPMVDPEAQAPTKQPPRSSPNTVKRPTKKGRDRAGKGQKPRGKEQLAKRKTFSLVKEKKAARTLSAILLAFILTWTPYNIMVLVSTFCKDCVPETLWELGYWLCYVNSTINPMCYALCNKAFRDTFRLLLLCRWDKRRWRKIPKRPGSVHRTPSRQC
Format: cell-based
Protocol: The assay studies the effect of one or several concentrations of test compounds on basal or acetylcholine-stimulated Ca^2+ levels using FLIPR.
Compounds are prepared and subjected to a preincubation period of 4 min. Thereafter, a single EC20 concentration of acetylcholine is added to each well (3 nM final). The intracellular Ca^2+ level of each sample is measured and compared to an acetylcholine control to determine any modulatory activity.
Cells: CHOnfat/hM1, hM2, hM3 or hM4 cells are plated 24 hr before the assay at a density of 18,000 cells/well (100 μL) in a 384 well plate. CHOnfat/hM1 and CHOnfat/hM3 Growth Medium: 90% DMEM (Hi Glucose); 10% HI FBS; 2 mM L-glutamine; 0.1 mM NEAA; Pen-Strep; and 1 mg/ml Geneticin, are added. For M2Gqi5CHOnfat and M4Gqi5CHOnfat cells, an additional 600 ug/ml hygromycin is added.
Equipment: 384 well plate, 120 μL addition plate; 96-well Whatman 2 ml Uniplate Incubator, 37° C., 5% CO2; Skatron EMBLA-384 Plate Washer; Multimek Pipetting System; Genesis Freedom 200 System; Mosquito System; Temo Nanoliter Pipetting System; and FLIPR^384 Fluorometric Imaging Plate Reader System are used.
Buffers. Assay Buffer: Hanks Balanced Salt Solution, with 20 mM Hepes, 2.5 mM Probenecid (Sigma P-8761) first dissolved in 1 N NaOH, 1% Bovine Serum Albumin (Sigma A-9647). Dye Loading Buffer: Assay Buffer plus 1% Fetal Bovine Serum and Fluo-4AM/Pluronic Acid Mixture. 2 mM Fluo-4AM ester stock in DMSO (Molecular Probes F-14202) Concentration of 2 μM in buffer for a final concentration of 1 μM in Assay. 20% Pluronic Acid Solution stock, with concentration of 0.04% in Buffer, 0.02% in Assay.
65 μL of 2 mM Fluo-4AM are mixed with 130 μL of 20% Pluronic Acid. The resulting solution and 650 μL FBS is added to the assay buffer for a total volume of 65 mL. Positive Controls: 4-Br-A23187: 10 mM in DMSO; final concentration 10 μM. Acetylcholine: 10 mM in water, working stock at both 20 μM and 30 μM in assay buffer, final concentration of 10 μM. This is used to check the maximum stimulation of the CHOK1/hM1 cells. 20 μM (2×) acetylcholine is added in the preincubation part of the assay, and the 30 μM (3×) stock is added in the second part. (EC20) Acetylcholine: 10 mM in water, working stock of 9 nM (3×), and final concentration in assay is 3 nM. This is used after the preincubation with test compounds. Addition of the EC20 Acetylcholine to each well with a test compound will ascertain any modulator activity. 24 wells contain 3 nM Acetylcholine alone as a control.
Determining Activity of Putative Compounds:
Screening Plate: Compounds are titrated in 96-well plates (columns 2-11), 100% DMSO, started at a concentration of 15 mM (150× stock concentration), and 3-fold serial dilutions using Genesis Freedom200 System. Four 96-well plates are combined into a 384-well plate using Mosquito Nanolitre Pipetting System by transferring 1 μl of serial diluted compounds to each well, and 1 mM acetylcholine (100× stock concentration) were added as a control. Using Temo, 49 μl assay buffer is added to each well of the 384-well plate right before assay.
In a 96-well Whatman 2 ml Uniplate, 9 nM Acetylcholine (3×) is pipetted into wells corresponding to the screening compounds, and into control wells. The 30 μM acetylcholine control (3×) is added into control wells, and the 3× agonist plate is transferred into a 384 well plate.
Cells are washed three times with 100 μL of buffer, leaving 30 μL of buffer in each well. Using Multimek, 30 μL of Dye Loading Buffer is added into each well and incubated at 37° C., 5% CO2 for up to one hr.
After 60 min, the cells are washed three times with 100 μL of buffer, leaving 30 μL of buffer in each well. The cell plate, screening plate, and agonist addition plates are placed on the platform in the FLIPR and the door closed. A signal test to check background fluorescence and basal fluorescence signal is performed. Laser intensity is adjusted if necessary. […]

`Cc1ccc(Cc2cc3c(=O)n([C@H]4CCCC[C@@H]4O)cnc3c3ccccc23)cn1` (racemic) [Example 1, rac-3-[trans-2-hydroxycyclohexyl]-6-[(6-methylpyridin-3-yl)methyl]benzo[h]quinazolin-4(3H)-one] and `COc1ccc(Cc2cc3c(=O)n([C@H]4CCCC[C@@H]4O)cnc3c3ccccc23)cn1` (racemic) [Example 9, rac-3-[trans-2-hydroxycyclohexyl]-6-[(6-methoxypyridin-3-yl)methyl]benzo[h]quinazolin-4(3H)-one] are within 1.5-fold of each other in EC50: 51 nM for the first, 73 nM for the second.

First: Cn1cc(-c2ccc(Cc3cc4c(=O)n([C@H]5CCCC[C@@H]5O)cnc4c4ccccc34)cn2)cn1 (racemic) [Example 5, rac-3-[trans-2-hydroxycyclohexyl]-6-{[6-(1-methyl-1H-pyrazol-4-yl)pyridine-3-yl]methyl}benzo[h]quinazolin-4(3H)-one]
Second: Cc1ccc(Cc2cc3c(=O)n([C@H]4CCCC[C@@H]4O)cnc3c3ccccc23)cn1 [Example 2, 3-[(1S,2S)-2-hydroxycyclohexyl]-6-[(6-methylpyridin-3-yl)methyl]benzo[h]quinazolin-4(3H)-one]
The EC50 of the first is 2.6-fold lower: 8 nM for the first, 21 nM for the second. The first is the more potent here.

First: O=c1c2cc(Cc3ccc(-n4cccn4)nc3)c3ccccc3c2ncn1[C@H]1CCCC[C@@H]1O (racemic) [Example 6, rac-3-[trans-2-hydroxycyclohexyl]-6-{[6-(1H-pyrazol-1-yl)pyridin-3-yl]methyl}benzo[h]quinazolin-4(3H)-one]
Second: N#Cc1ccc(Cc2cc3c(=O)n([C@H]4CCCC[C@@H]4O)cnc3c3ccccc23)cn1 (racemic) [Example 7, rac-5-({3-[trans-2-hydroxycyclohexyl]-4-oxo-3,4-dihydrobenzo[h]quinazolin-6-yl}methyl)pyridine-2-carbonitrile]
The EC50 of the first is 2.4-fold lower: 31 nM for the first, 74 nM for the second. The first is the more potent here.

First: CS(=O)(=O)c1ccc(Cc2cc3c(=O)n([C@H]4CCCC[C@@H]4O)cnc3c3ccccc23)cn1 (racemic) [Example 8, rac-3-[trans-2-hydroxycyclohexyl]-6-{[6-methylsulfonyl)pyridine-3-yl]methyl}benzo[h]quinazolin-4(3H)-one]
Second: CC(C)c1ccc(Cc2cc3c(=O)n([C@H]4CCCC[C@@H]4O)cnc3c3ccccc23)cn1 [Example 13]
The EC50 of the first is 4.4-fold higher: 93 nM for the first, 21 nM for the second. The second is the more potent here.

First: CC(=O)O[C@H]1CCCC[C@@H]1n1cnc2c(cc(Cc3ccc(Cl)nc3)c3ccccc32)c1=O (racemic) [Example 11, trans-2-[6-[(6-chloropyridin-3-yl)methyl]-4-oxobenzo[h]quinazolin-3(4H)-yl]cyclohexyl rac-acetate]
Second: CC(=O)N[C@H]1CCCC[C@@H]1n1cnc2c(cc(Cc3ccc(Cl)nc3)c3ccccc32)c1=O [Example 12, N-{(1S,2S)-2-[6-[(6-chloropyridin-3-yl)methyl]-4-oxobenzo[h]quinazolin-3(4H)-yl]cyclohexyl}acetamide]
The EC50 of the first is lower: 3600 nM for the first, greater than 10000 nM for the second. The first is the more potent here.

Compared with `O=c1c2cc(Cc3ccc(CO)nc3)c3ccccc3c2ncn1[C@H]1CCCC[C@@H]1O` (racemic) [Example 15, rac-3-[trans-2-hydroxycyclohexyl]-6-{[6-(hydroxymethyl)pyridine-3-yl]methyl}benzo[h]quinazolin-4(3H)-one], `CC(C)(O)c1ccc(Cc2cc3c(=O)n([C@H]4CCCC[C@@H]4O)cnc3c3ccccc23)cn1` [Example 14] is 1.9-fold higher in EC50: 24 nM for the first, 46 nM for the second.

`Cn1cc(Cc2cc3c(=O)n([C@H]4CCCC[C@@H]4O)cnc3c3ccccc23)ccc1=O` (racemic) [Example 16, rac-3-[trans-2-hydroxycyclohexyl]-6-[(1-methyl-6-oxo-1,6-dihydropyridin-3-yl)methyl]benzo[h]quinazolin-4(3H)-one] and `Cc1ccc(Cc2cc3c(=O)n([C@H]4CCCC[C@@H]4O)cnc3c3ccccc23)c[n+]1[O-]` [Example 17, 3-[(1S,2S)-2-hydroxycyclohexyl]-6-[(6-methyl-1-oxidopyridin-3-yl)methyl]benzo[h]quinazolin-4(3H)-one] are within 1.5-fold of each other in EC50: 84 nM for the first, 63 nM for the second.

First: COc1ccc(Cc2cc3c(=O)n(-c4cc(C)[nH]n4)cnc3c3ccccc23)cc1 [Example 3]
Second: COc1ccc(Cc2cc3c(=O)n(-c4cccnc4)cnc3c3ccccc23)cc1 [Example 4, 6-(4-methoxybenzyl)-3-pyridin-3-ylbenzo[h]quinazolin-4(3H)-one]
The EC50 of the first is 1.9-fold lower: 1800 nM for the first, 3500 nM for the second. The first is the more potent here.

`O=C1CCCCC1n1cnc2c(cc(Cc3ccc(Cl)nc3)c3ccccc32)c1=O` (stereo not shown) [Example 10, 6-[(6-chloropyridin-3-yl)methyl]-3-(2-oxycyclohexyl)benzo[h]quinazolin-4(3H)-one] and `Cc1nc2c(cc(Cc3ccc(Cl)nc3)c3ccccc32)c(=O)n1[C@H]1CCCC[C@@H]1O` [Example 19, 6-[(6-chloropyridin-3-yl)methyl]-3-[(1S,2S)-2-hydroxycyclohexyl]-2-methylbenzo[h]quinazolin-4(3H)-one] are within 1.5-fold of each other in EC50: 1300 nM for the first, 1430 nM for the second.

`O=c1c2cc(Cc3ccccn3)c3ccccc3c2ncn1[C@H]1CCCC[C@@H]1O` [Example 18, 3-[(1S,2S)-2-hydroxycyclohexyl]-6-(pyridin-2-ylmethyl)benzo[h]quinazolin-4(3H)-one] gave an EC50 of 228 nM.
